Converted amounts (≈) assume the structure as drawn.
Key:
Actinomyces israellii = assay: agar-dilution MIC vs. anaerobic bacteria; type: cell-based; conditions: strain W855; Table 6
Description: (§1) The agar-dilution procedure described by the International Collaborative Study (ICS) group was used to determine MIC values.
(§2) The MIC was determined by the agar-dilution method.

[1] = test system: Bacteroides thetaiotaomicron; assay: agar-dilution MIC vs. anaerobic bacteria; type: cell-based
Description: as §1, §2

Peptococcus prevoti = assay: agar-dilution MIC vs. anaerobic bacteria; type: cell-based
Description: as §1, §2

Clostridium septicum = assay: agar-dilution MIC vs. anaerobic bacteria; type: cell-based; conditions: strain 1128, Table 6
Description: as §1, §2

Streptococcus pyogenes = assay: disc-plate screening procedure, zone of inhibition; conditions: read-out: Zone Diameter
Streptococcus faecalis = assay: agar-dilution screening procedure, MIC; type: cell-based; conditions: Enterococcus faecalis, S. faecalis X66
Description: as §1
(§3) The results obtained from tests of antibiotic A-32256 in the agar-dilution screening procedure are recorded in Table 5, which follows.

Erwinia amylovora = assay: agar-dilution screening procedure, MIC; type: cell-based
Description: as §1, §3

Staphylococcus aureus = assay: agar-dilution screening procedure, MIC; type: cell-based
Description: as §1, §3

Bacteroides fragilis [2] = assay: agar-dilution MIC vs. anaerobic bacteria; type: cell-based; conditions: Table 6
Clostridium perfringens = assay: microbe, parasite or virus in culture; type: cell-based; conditions: Clostridium perfringens, strain 81; Table 6
B. thetaiotaomicron = assay: agar-dilution MIC vs. Bacteroides species; type: cell-based; conditions: 24 hours, Table 8
Description: as §1
(§4) The MIC values were determined by the agar-dilution method, the endpoints being read 24 hours after incubation, and are recorded in Table 8, which follows.

B. vulgatis = assay: agar-dilution MIC vs. Bacteroides species; type: cell-based; conditions: B. vulgatis 1563; 24 hours; Table 8
Description: as §1, §4

Bacteroides fragilis [3] = assay: agar-dilution MIC vs. Bacteroides species; type: cell-based; conditions: 24 hours, Table 8
Description: as §1, §4

B. corrodens = assay: agar-dilution MIC vs. Bacteroides species; type: cell-based; conditions: B. corrodens 1874; 24 hours; Table 8
Description: as §1, §4

Streptococcus pneumoniae = assay: disc-plate screening procedure, zone of inhibition; conditions: read-out: Zone Diameter

Cc1cccc(O)c1C(=O)OC(C)c1cccc2nc3c(C(=O)O)cccc3nc12 (centres unmarked) [Antibiotic A-32256, 6-[1-[(2-hydroxy-6-methylbenzoyl)oxy]-ethyl]-1-phenazinecarboxylic acid]
MIC (Actinomyces israellii): 16 µg/mL (≈ 39.8 µM) | MIC [1]: ≤ 0.5 µg/mL | MIC (Peptococcus prevoti): ≤ 0.5 µg/mL | MIC (Clostridium septicum): ≤ 0.5 µg/mL | zone of inhibition at 30 µg/disc (Streptococcus pyogenes): 11 mm | zone of inhibition at 300 µg/disc (Streptococcus pyogenes): 13 mm | MIC (Streptococcus faecalis): 4 µg/mL (≈ 9.94 µM) | MIC (Erwinia amylovora): 4 µg/mL (≈ 9.94 µM) | MIC (Staphylococcus aureus; S. aureus 3055, benzylpenicillin-susceptible): 1 µg/mL (≈ 2.49 µM) | MIC (Staphylococcus aureus; S. aureus 3074, benzylpenicillin-resistant): < 0.5 µg/mL | MIC (Bacteroides fragilis [2]; Bacteroides fragilis, strain 111, read-out: MIC): 1 µg/mL (≈ 2.49 µM) | MIC (Bacteroides fragilis [2]; Bacteroides fragilis, strain 1936B, read-out: MIC): 1 µg/mL (≈ 2.49 µM) | MIC (Bacteroides fragilis [2]; strain 1877): 8 µg/mL (≈ 19.9 µM) | MIC (Clostridium perfringens): 2 µg/mL (≈ 4.97 µM) | MIC (B. thetaiotaomicron; B. thetaiotaomicron 1438): 1.0 µg/mL (≈ 2.49 µM) | MIC (B. thetaiotaomicron; B. thetaiotaomicron 1900A): 1.0 µg/mL (≈ 2.49 µM) | MIC (B. vulgatis): 1.0 µg/mL (≈ 2.49 µM) | MIC (Bacteroides fragilis [3]; B. fragilis 2): 1.0 µg/mL (≈ 2.49 µM) | MIC (Bacteroides fragilis [3]; B. fragilis 9): 1.0 µg/mL (≈ 2.49 µM) | MIC (Bacteroides fragilis [3]; B. fragilis 62): 1.0 µg/mL (≈ 2.49 µM) | MIC (Bacteroides fragilis [3]; B. fragilis 103): 0.5 µg/mL (≈ 1.24 µM) | MIC (Bacteroides fragilis [3]; B. fragilis 104): 1.0 µg/mL (≈ 2.49 µM) | MIC (Bacteroides fragilis [3]; B. fragilis 106): 0.5 µg/mL (≈ 1.24 µM) | MIC (Bacteroides fragilis [3]; B. fragilis 107): 2 µg/mL (≈ 4.97 µM) | MIC (Bacteroides fragilis [3]; B. fragilis 108): 1.0 µg/mL (≈ 2.49 µM) | MIC (Bacteroides fragilis [3]; B. fragilis 110): 0.5 µg/mL (≈ 1.24 µM) | MIC (Bacteroides fragilis [3]; B. fragilis 111): 1.0 µg/mL (≈ 2.49 µM) | MIC (Bacteroides fragilis [3]; B. fragilis 112): 0.5 µg/mL (≈ 1.24 µM) | MIC (Bacteroides fragilis [3]; B. fragilis 113): 1.0 µg/mL (≈ 2.49 µM) | MIC (Bacteroides fragilis [3]; B. fragilis 1470): 0.5 µg/mL (≈ 1.24 µM) | MIC (Bacteroides fragilis [3]; B. fragilis 1877): 1.0 µg/mL (≈ 2.49 µM) | MIC (Bacteroides fragilis [3]; V. fragilis 1451 (so in the source)): 2 µg/mL (≈ 4.97 µM) | MIC (B. corrodens): 0.25 µg/mL (≈ 0.621 µM) | zone of inhibition at 30 µg/disc (Streptococcus pneumoniae): 14 mm | zone of inhibition at 300 µg/disc (Streptococcus pneumoniae): 16 mm
